Experimental data taken from patent US8926944B2, “Radiolabeled prostate specific membrane antigen inhibitors” (Molecular Insight Pharmaceuticals, priority 2011, dated 2015).

Legend:
PSMA = target: T1, PSMA (Homo sapiens, UniProt Q04609); assay: competitive binding assay against 123I-DCIT in PSMA positive LNCaP cells; conditions: Lu complexes; competition with 3 nM 123I DCIT on LNCaP cells, 1 hour at room temperature
T1 construct: host or cells: LNCaP human prostate cancer cells
Experimental: The compounds of Formula I or Formula II were screened in a human prostate cancer cell binding assay using PSMA positive (+), LnCap cells.
Briefly, LNCaP and PC3 human prostate cancer cells were obtained from American Type Culture Collection, Rockville, Md. LNCaP cells were maintained in RPMI-1640 medium supplemented with 10% fetal bovine serum (FBS). Binding of the radiolabeled compound and competition with cold derivatives to LNCaP cells was performed according to published methods. Cells were plated in 12-well plates at approximately 4×10^5 cells/well and incubated for 48 hours in a humidified incubator at 37° C./5% carbon dioxide prior to addition of compound. Solutions of the Formula I or Formula II compounds were prepared and diluted in serum-free cell culture medium containing 0.5% bovine serum albumin (BSA) in combination with 3 nM ^123I DCIT (known inhibitor). Total binding was determined by incubating ^123I-DCIT without test compound. Plates were incubated at room temperature for 1 hour. Cells were removed from the plates and transferred to eppendorff tubes. Samples were microcentrifuged for 15 seconds at 10K×g. The medium was aspirated and the pellet was washed twice by dispersal in fresh assay medium followed by microcentrifugation. Cell binding of ^123I DCIT was determined by counting the cell pellet in an automated gamma counter. Nonspecific binding was determined as the counts associated with the cells after incubating with 2 uM nonradiolabeled compound or 2-phosphonomethyl-pentanedioic acid (PMPA). Table 3 illustrates the IC50 values of representative Formula II complexes.

LNCap tumor cells = assay: tissue biodistribution study in LNCap xenograft mice; format: in vivo; conditions: 177Lu complex; for concentration in kidneys versus LNCap tumor cells: 4 hours post administration; for concentration in LNCap tumor cells versus kidney: 24 hours and 96 hours post administration; for change of concentration in kidney: later time intervals (24 and 96 hours)
Experimental: FIG. 2 is a graph of the tissue biodistribution of a ^111In analog of the compound of Example 3, in LNCap Xenograft mice.
FIGS. 1A and 1B illustrate results of a bio-distribution study in LNCap xenograft mice of a GUG-DOTA-^177Lu complex (compound (A)) and a GUL-DOTA-^177Lu complex (compound (B)) according to Formula II.
In contrast, the inventive compounds accumulate within tumor cells with only a slight decrease in intratumoral concentration observed after 96 hours.
FIG. 2 illustrates results of a bio-distribution study in LNCap xenograft mice using a GUL-DOTA-^111In complex and a hydrophobic aminohexanoic acid linker. […] The inventors hypothesize that the low biodistribution of MIP-1450 LNCap tumor cells may be due to this compounds low affinity for PSMA expressed on the surface of LNCap cells. As stated above, it was unexpectedly that presence of carboxylic acid groups in the linker region increased affinity of Formula I compounds for PSMA. This increase in binding affinity is due, at least in part to additional cooperative binding interactions of the free carboxylic acid groups with amino acid residues of PSMA. Illustrative of Formula I compound-radionuclide complexes that have one or more carboxylic acid groups as part of the linker group include without limitation the following compounds: […]

T1 sequence (Q04609 whole entry): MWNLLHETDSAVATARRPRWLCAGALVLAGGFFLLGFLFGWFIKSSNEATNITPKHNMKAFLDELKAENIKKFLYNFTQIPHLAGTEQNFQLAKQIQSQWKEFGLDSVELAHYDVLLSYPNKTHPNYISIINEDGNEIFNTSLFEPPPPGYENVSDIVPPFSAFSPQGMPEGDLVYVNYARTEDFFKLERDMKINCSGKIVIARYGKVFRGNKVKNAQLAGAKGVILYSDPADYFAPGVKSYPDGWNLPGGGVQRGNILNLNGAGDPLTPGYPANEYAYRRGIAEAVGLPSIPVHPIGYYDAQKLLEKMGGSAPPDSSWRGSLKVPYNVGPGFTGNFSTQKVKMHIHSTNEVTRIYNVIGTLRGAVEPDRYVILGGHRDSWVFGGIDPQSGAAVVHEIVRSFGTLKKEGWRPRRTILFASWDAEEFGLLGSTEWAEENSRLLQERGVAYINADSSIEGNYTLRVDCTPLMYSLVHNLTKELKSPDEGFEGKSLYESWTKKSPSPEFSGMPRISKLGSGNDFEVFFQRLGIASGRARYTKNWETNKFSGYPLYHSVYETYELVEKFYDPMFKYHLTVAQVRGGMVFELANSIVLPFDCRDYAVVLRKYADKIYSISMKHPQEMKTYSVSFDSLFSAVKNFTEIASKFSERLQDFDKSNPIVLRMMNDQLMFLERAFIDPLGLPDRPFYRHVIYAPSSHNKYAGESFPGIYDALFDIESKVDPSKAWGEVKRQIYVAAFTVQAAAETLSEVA

Compound	IC50 (PSMA) [nM]	further results
(11S,16S,20S)-11-benzyl-10,13,18-trioxo-1-((4-((1,4,7,10-tetrakis(carboxymethyl)-1,4,7,10-tetraazacyclododecan-2-yl)methyl)phenyl)amino)-1-thioxo-2,9,12,17,19-pentaazadocosane-16,20,22-tricarboxylate Lu complex [Lu-MIP-1548]	77	
(10S,17S,21S)-10-(4-fluorobenzyl)-8,11,19-trioxo-1-((4-((1,4,7,10-tetrakis(carboxymethyl)-1,4,7,10-tetraazacyclododecan-2-yl)methyl)phenyl)amino)-1-thioxo-2,9,12,18,20-pentaazatricosane-17,21,23-tricarboxylate Lu complex [Lu-MIP-1546]	15	
^177Lu-complex of (11S,16S,20S)-11-(2-carboxyethyl)-10,13,18-trioxo-1-((4-((1,4,7,10-tetrakis(carboxymethyl)-1,4,7,10-tetraazacyclododecan-2-yl)methyl)phenyl)amino)-1-thioxo-2,9,12,17,19-pentaazadocosane-16,20,22-tricarboxylate		concentration in kidneys versus LNCap tumor cells (LNCap tumor cells): concentrate to a greater extent in the kidneys than LNCap tumor cells; concentration in LNCap tumor cells versus kidney (LNCap tumor cells): the concentration is greater in LNCap tumor cells than kidney; change of concentration in kidney (LNCap tumor cells): significant reduction
(10S,17S,21S)-10-(2-carboxyethyl)-8,11,19-trioxo-1-((4-((1,4,7,10-tetrakis(carboxymethyl)-1,4,7,10-tetraazacyclododecan-2-yl)methyl)phenyl)amino)-1-thioxo-2,9,12,18,20-pentaazatricosane-17,21,23-tricarboxylate Lu complex [Lu-MIP-1523]	54	
O=C(O)CC[C@H](NC(=O)N[C@@H](CCCCNC(=O)[C@H](Cc1ccc2ccccc2c1)NC(=O)CCCCCNC(=S)Nc1ccc(CC2CN(CC(=O)O)CCN(CC(=O)O)CCN(CC(=O)O)CCN2CC(=O)O)cc1)C(=O)O)C(=O)O.[177Lu] (stereo partly drawn) [B, ^177Lu-complex of (10S,17S,21S)-10-(naphthalen-2-ylmethyl)-8,11,19-trioxo-1-((4-((1,4,7,10-tetrakis(carboxymethyl)-1,4,7,10-tetraazacyclododecan-2-yl)methyl)phenyl)amino)-1-thioxo-2,9,12,18,20-pentaazatricosane-17,21,23-tricarboxylic acid]		concentration in kidneys versus LNCap tumor cells (LNCap tumor cells): concentrate to a greater extent in the kidneys than LNCap tumor cells; concentration in LNCap tumor cells versus kidney (LNCap tumor cells): the concentration is greater in LNCap tumor cells than kidney; change of concentration in kidney (LNCap tumor cells): significant reduction
(13S,17S)-10,15-dioxo-1-((4-((1,4,7,10-tetrakis(carboxymethyl)-1,4,7,10-tetraazacyclododecan-2-yl)methyl)phenyl)amino)-1-thioxo-2,9,14,16-tetraazanonadecane-13,17,19-tricarboxylate Lu complex [Lu-MIP-1526]	78	
(10S,17S,21S)-10-(naphthalen-2-ylmethyl)-8,11,19-trioxo-1-((4-((1,4,7,10-tetrakis(carboxymethyl)-1,4,7,10-tetraazacyclododecan-2-yl)methyl)phenyl)amino)-1-thioxo-2,9,12,18,20-pentaazatricosane-17,21,23-tricarboxylate Lu complex [Lu-MIP-1545]	10	
(11S,16S,20S)-11-(2-carboxyethyl)-10,13,18-trioxo-1-((4-((1,4,7,10-tetrakis(carboxymethyl)-1,4,7,10-tetraazacyclododecan-2-yl)methyl)phenyl)amino)-1-thioxo-2,9,12,17,19-pentaazadocosane-16,20,22-tricarboxylate Lu complex [Lu-MIP-1519]	12	

More lines, main results first:

IC50 (PSMA) [nM]	Compound	further results
22	(10S,13S,20S,24S)-13-(2-carboxyethyl)-10-(4-fluorobenzyl)-8,11,14,22-tetraoxo-1-((4-((1,4,7,10-tetrakis(carboxymethyl)-1,4,7,10-tetraazacyclododecan-2-yl)methyl)phenyl)amino)-1-thioxo-2,9,12,15,21,23-hexaazahexacosane-20,24,26-tricarboxylate Lu complex [Lu-MIP-1550]	
21	(10S,17S,21S)-10-benzyl-8,11,19-trioxo-1-((4-((1,4,7,10-tetrakis(carboxymethyl)-1,4,7,10-tetraazacyclododecan-2-yl)methyl)phenyl)amino)-1-thioxo-2,9,12,18,20-pentaazatricosane-17,21,23-tricarboxylate-Lu complex [Lu-MIP-1530]	
28	(3S,7S,14S,17S)-14-benzyl-5,13,16-trioxo-17-(6-(3-(4-((S)-1,4,7,10-tetrakis(carboxymethyl)-1,4,7,10-tetraazacyclododecan-2-yl)methyl)phenyl)thioureido)hexanamido)-4,6,12,15-tetraazanonadecane-1,3,7,19-tetracarboxylate Lu complex [Lu-MIP-1531]	
23	(16S,20S)-10,18-dioxo-1-((4-((1,4,7,10-tetrakis(carboxymethyl)-1,4,7,10-tetraazacyclododecan-2-yl)methyl)phenyl)amino)-1-thioxo-2,11,17,19-tetraazadocosane-16,20,22-tricarboxylate Lu complex [Lu-MIP-1512]	
